The subject of one assay is MDA-MB-231 cells. Briefly: Cell anti-proliferation / toxicity assay (CCK-8), MDA-MB-231. Particulars: Homo sapiens, MDA-MB-231, 72 h, CCK-8, read-out: EC50 MDA-MB-231. The format is cell-based. As for the experimental part: Initial tests designed around assessing whether a synergistic effect would be observed in real when a combination of G9a inhibitor and HDAC inhibitor used in conjunction.
Cell anti-proliferation assays were performed to determine the toxicity of these inhibitors. Several cell lines (MDA-MB-231, MCF-7 and A549) were incubated and then treated with varying concentrations of the inhibitors for 72 h, respectively. […] These compounds were further evaluated against the control cell line HEK293 to test their toxicity with a non-cancerous cell line.
A549, MDA-MB-231, MCF-7 and HEK293 cells were seeded at 8000-10000 cells (100 μl) in white 96-well plates and pre-incubate the plate for 24 h under standard cell culture conditions, respectively. And then the cells were exposed to the different inhibitors with various concentrations for 72 h. Finally, 10 μl of CCK-8 kit solution was added to each well and incubated for 3-4 hours under standard cell culture conditions, and the 96 well plates were measured the absorbance at 450 nm using Perkin–Elmer Wallac Victor ^3V 1420 multi label plate reader (Perkin–Elmer, Wellesley, USA). EC50s were calculated using GraphPad Prizm statistical package with sigmoidal variable slope dose response curve fit.

The target in assay [1] is T1, Mouse histone methyltransferase G9a (969-1263) (Mus musculus, UniProt Q9Z148).
T1 construct: The 6His-sumo mG9a (969-1263) protein was purified using the following procedure; 6His-sumo (N, cleaved yes); made in house; host or cells: Escherichia coli BL21 (DE3)
T1 sequence (Q9Z148 969-1263): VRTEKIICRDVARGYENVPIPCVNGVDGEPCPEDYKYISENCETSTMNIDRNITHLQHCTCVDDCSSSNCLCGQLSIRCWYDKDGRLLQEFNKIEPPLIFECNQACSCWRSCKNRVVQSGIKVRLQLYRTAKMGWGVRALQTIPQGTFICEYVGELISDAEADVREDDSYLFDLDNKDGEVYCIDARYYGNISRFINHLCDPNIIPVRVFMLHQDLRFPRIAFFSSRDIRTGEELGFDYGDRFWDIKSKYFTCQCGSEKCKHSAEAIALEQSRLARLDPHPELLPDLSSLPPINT
Briefly: MALDI-TOF methylation study of G9a enzymatic activity (H3 peptide, SAM). The format is biochemical. The settings on record: Supplementary Table 1; inhibitor 5 μM, 30 min; average of 3 values. Here is the method:
Figure 3 compounds were synthesized from the commercially available starting material 1. An initial displacement reaction using a primary amine was used to introduce the C4 selective substitution, with the second displacement to introduce the linker at the C2 position following the microwave assisted reaction previously reported. Boc-protected ethylene diamine was treated with compound 2 at 160°C in a microwave for 10 min to yield product 3 with excellent yield. Afterward, the amine 3 was deprotected with TFA/DCM, and the free amine was treated with corresponding monomethyl esters (carbon chain 2-6) in the presence of coupling reagent EDCI and HOBt for about 8 hours to produce mono methyl ester substituted at the C2 position. The ester compounds further treated with hydroxylamine in water to get the corresponding hydroxamic acid derivatives, which were purified using reverse phase flash chromatography to obtain compounds 4-7 and 4a-7a in good yield. Synthesis of compounds in Figure 4 requires the C6 demethoxy core, and this was synthesized according to the reported procedure to yield 10 [45]. […] Compounds with the HDAC pharmacophore at the C4 position (Figure 2B) were synthesized from the starting material 1. […] A parallel synthesis and testing strategy were used in establishing the primary SAR, with the clear rationalization of the structure and activity at each stage we could reduce the synthetic targets. Initially, we evaluated the G9a potential after the introduction of HDAC pharmacophore. A biochemical assay using MALDI-TOF was used to visualize the effects of the synthesized compounds on G9a enzymatic activity, we carried out a biochemical reaction involving target enzyme G9a, methyl donor SAM and substrate H3 peptide at a concentration of 400 nM, 10 μM and 5 μM respectively.
Mouse histone methyltransferase G9a (969-1263) cDNA was amplified from the cDNA of BALB/c mouse thymus, and the fragment was sub-cloned into a vector with a 6His-sumo tag. The mouse G9a (mG9a) was expressed in Escherichia coli BL21 (DE3) by the addition of 1 mM isopropyl-1-thio-D-galactopyranoside (IPTG) and incubated overnight at 16°C.
The in vitro inhibition of G9a by the synthesized compounds were measured by MALDI-TOF mass spectrum (Bruker MALDI TOF/TOF Analyzer). 400 nM purified G9a, 5 μM synthesized histone H3 (1-21) and 10 μM non-radioactive S-adenosyl methionine (Sigma) were added in reaction buffer (50 mM HEPES pH 8.0, 5 μg/ml BSA and 0.1% β-Mercaptoethanol) with or without inhibitors (5 μM). The reaction was incubated at room temperature for 30 min, and stopped by TFA. 1 μl of the sample was mixed with CHCA matrix and m/z peaks were obtained at reflection positive mode. The results of mass spectrum were analyzed using the Bruker flex analysis software, a detailed description of data processing is provided as supplementary information (S3).
[…]
MALDI spectrums were collected using Bruker flex % conversion to product is also C, from this to get the control software and analyzed by flex analysis. After %maximal activity (%MA), C was compared to the % labelling each cluster peaks of H3K9Me0, H3K9Me1 conversion when no inhibitor was used (D). and H3K9Me2 for all of the tested concentrations, area Finally % inhibition was found by subtracting under the cluster (AUC) were extracted by using the same %MA from 100 […]
flex analysis software. % abundance of each peak was Example: % methylation levels and % inhibition calculated by following formula, when used 5 μM compound 14
A = % Abundance of (H3K9Me0) = area of A = 13.09
B = % Abundance of (H3K9Me1) = area of % conversion when no inhibitor was used D = 84.43 H3K9Me1/ (area of H3K9Me0+area of H3K9Me1 + area (average of six measurements) […]

Another assay concerns HDAC. Briefly: Homogeneous cellular histone deacetylase assay, K562. The format is cell-based, human. Here is the method: The enzymatic activity of HDAC was measured in intact cells using the homogeneous cellular assay method. A cell-permeable peptide Boc-K(Ac)-AMC used as the HDAC substrate, after deacetylation it is cleaved by trypsin to release the fluorescent 7-amino-4-methylcoumarin (AMC) and further quantified.
The manual assay was developed by Thomas's group. […] After 24 h, 9 μl inhibitors with different concentration were added to the HeLa cells and incubation was continued for 3 h under cell culture conditions. After this treatment period, 10 μl of a 2 mM stock solution of the substrate Boc-K(Ac)-AMC was added into the 96 well plates with Hela cells and inhibitors. […] A549 and K562 cell lines used the same method, respectively. IC50s were calculated using GraphPad Prizm statistical package with sigmoidal variable slope dose response curve fit.

[2] abbreviates: Supplementary Table 4, >100 = not reached at 100 μM.
The mark [3] stands for this setting: Supplementary Table 2, NA = not active up to highest concentration tested (100 μM), >100 = IC50 not reached at 100 μM, read-out: IC50-HDAC K562.

Like-named read-outs stand apart in the source and are kept apart here.

Turning to `COc1cc2nc(NCCNC(=O)CCCC(=O)NO)nc(NC3CCN(C)CC3)c2cc1OC` [Compound 7, N1-(2-((6,7-dimethoxy-4-((1-methylpiperidin-4-yl)amino)quinazolin-2-yl)amino)ethyl)-N5-hydroxyglutaramide], in the assay with MDA-MB-231 cells (setting [2]), the 50% effective concentration (EC50) was above 100 µM. Also, the inhibition at 5 µM in assay [1] is 19.6 ± 20.9%.

`COc1ccc2c(NC3CCN(Cc4ccccc4)CC3)nc(NCCNC(=O)CCCC(=O)NO)nc2c1` [Compound 16, N1-(2-((4-((1-benzylpiperidin-4-yl)amino)-7-methoxyquinazolin-2-yl)amino)ethyl)-N5-hydroxyglutaramide]: in the assay on MDA-MB-231 cells (setting [2]), the EC50 was 38.1 µM. Besides, the concentration for half-maximal inhibition (IC50) in the assay with HDAC (setting [3]) is above 100 µM. In assay [1], the inhibition at 5 µM came out at 40.3 ± 13.8%.

For the compound `COc1ccc2c(NC3CCN(C)CC3)nc(NCCNC(=O)CCCC(=O)NO)nc2c1` [Compound 16a, N1-hydroxy-N5-(2-((7-methoxy-4-((1-methylpiperidin-4-yl)amino)quinazolin-2-yl)amino)ethyl)glutaramide], the EC50 in the assay on MDA-MB-231 cells (setting [2]) amounted to 90.5 µM. The 50% inhibitory concentration (IC50) in the assay on HDAC (setting [3]) is above 100 µM. The inhibition at 5 µM in assay [1] is 40.3 ± 13.8%.

For `COc1ccc2c(NC3CCN(Cc4ccccc4)CC3)nc(NCCNC(=O)CCCCCCC(=O)NO)nc2c1` [Compound 13, N1-(2-((4-((1-benzylpiperidin-4-yl)amino)-7-methoxyquinazolin-2-yl)amino)ethyl)-N8-hydroxyoctanediamide], the EC50 in the assay on MDA-MB-231 cells (Table 6, mean ± SD of triplicates) is 89.3 ± 1.23 µM. Besides, the concentration for half-maximal inhibition (IC50) with HDAC (Table 3, Boc-K(Ac)-AMC substrate, intact K562 cells, read-out: K562 IC50) is 27.8 ± 0.59 µM. Besides, at 5 µM the inhibition in assay [1] was 24.9 ± 17.4%.

Take `COc1cc2nc(NCCNC(=O)CCCCCC(=O)NO)nc(NC3CCN(Cc4ccccc4)CC3)c2cc1OC` [Compound 5b, N1-(2-((4-((1-benzylpiperidin-4-yl)amino)-6,7-dimethoxyquinazolin-2-yl)amino)ethyl)-N7-hydroxyheptanediamide]: the EC50 with MDA-MB-231 cells (setting [2]) came out at 12.3 ± 3.27 µM. At 5 µM the inhibition in assay [1] was 38 ± 4.99%.

For `COc1cc2nc(NCCNC(=O)CCCCCC(=O)NO)nc(NC3CCN(C(C)C)CC3)c2cc1OC` [Compound 5a, N1-hydroxy-N7-(2-((4-((1-isopropylpiperidin-4-yl)amino)-6,7-dimethoxyquinazolin-2-yl)amino)ethyl)heptanediamide], the EC50 in the assay with MDA-MB-231 cells (setting [2]) was above 100 µM. Besides, at 5 µM the inhibition in assay [1] was 47.5 ± 9.32%.

Turning to `COc1cc2nc(N3CCCN(C)CC3)nc(NC3CCN(C(=O)CCCCCCC(=O)NO)CC3)c2cc1OC` [Compound 19, 8-(4-((6,7-dimethoxy-2-(4-methyl-1,4-diazepan-1-yl)quinazolin-4-yl)amino)piperidin-1-yl)-N-hydroxy-8-oxooctanamide], the EC50 in the assay with MDA-MB-231 cells (setting [2]) was above 100 µM. For the same compound, the IC50 with HDAC (setting [3]) is above 100 µM. This compound displayed an inhibition at 5 µM in assay [1] of 10.7 ± 25.9%.

`COc1ccc2c(NC3CCN(Cc4ccccc4)CC3)nc(NCCNC(=O)CCCCC(=O)NO)nc2c1` [Compound 15, N1-(2-((4-((1-benzylpiperidin-4-yl)amino)-7-methoxyquinazolin-2-yl)amino)ethyl)-N6-hydroxyadipamide]: the 50% effective concentration (EC50) in the assay on MDA-MB-231 cells (setting [2]) was 95.2 µM. Also, the IC50 in the assay with HDAC (setting [3]) is above 100 µM. For the same compound, in assay [1], testing at 5 µM gave an inhibition of 69.1 ± 24.5%.

Take `COc1cc2nc(NCCNC(=O)CCCC(=O)NO)nc(NC3CCN(C(C)C)CC3)c2cc1OC` [Compound 7a, N1-hydroxy-N5-(2-((4-((1-isopropylpiperidin-4-yl)amino)-6,7-dimethoxyquinazolin-2-yl)amino)ethyl)glutaramide]: in the assay with MDA-MB-231 cells (setting [2]), the 50% effective concentration (EC50) is above 100 µM. In assay [1], this compound registered an inhibition at 5 µM of 15 ± 15.7%.

For `COc1cc2nc(NCCNC(=O)CCCCCCC(=O)NO)nc(NC3CCN(C)CC3)c2cc1OC` [Compound 4, N1-(2-((6,7-dimethoxy-4-((1-methylpiperidin-4-yl)amino)quinazolin-2-yl)amino)ethyl)-N8-hydroxyoctanediamide], the EC50 with MDA-MB-231 cells (setting [2]) is above 100 µM. For the same compound, the inhibition at 5 µM in assay [1] was 27 ± 12.2%.

Regarding `COc1cc2nc(N3CCCN(C)CC3)nc(NC3CCN(C(=O)CCCCCC(=O)NO)CC3)c2cc1OC` [Compound 20, 7-(4-((6,7-dimethoxy-2-(4-methyl-1,4-diazepan-1-yl)quinazolin-4-yl)amino)piperidin-1-yl)-N-hydroxy-7-oxoheptanamide], the EC50 in the assay on MDA-MB-231 cells (setting [2]) is above 100 µM. Further, the IC50 in the assay with HDAC (setting [3]) was above 100 µM. The inhibition at 5 µM in assay [1] was determined as 14.6 ± 15.8%.

Consider `COc1ccc2c(NC3CCN(C)CC3)nc(NCCNC(=O)CCCCC(=O)NO)nc2c1` [Compound 15a, N1-hydroxy-N6-(2-((7-methoxy-4-((1-methylpiperidin-4-yl)amino)quinazolin-2-yl)amino)ethyl)adipamide], for which, in the assay with MDA-MB-231 cells (setting [2]), the EC50 turned out to be 77.6 µM. Moreover, in the assay with HDAC (setting [3]), the IC50 was above 100 µM. At 5 µM the inhibition in assay [1] was 47.9 ± 12.9%.

In the case of `COc1cc2nc(NCCNC(=O)CCCCCCC(=O)NO)nc(NC3CCN(C(C)C)CC3)c2cc1OC` [Compound 4a, N1-hydroxy-N8-(2-((4-((1-isopropylpiperidin-4-yl)amino)-6,7-dimethoxyquinazolin-2-yl)amino)ethyl)octanediamide], the EC50 in the assay on MDA-MB-231 cells (setting [2]) was above 100 µM. Moreover, in assay [1], the inhibition at 5 µM stood at 11.2 ± 3.68%.

A word on the EC50: it is the concentration at which the effect is half-maximal. Usually inhibition stands for the relative decrease from the control value, in per cent. One may read the IC50 as the concentration at which inhibition is half-maximal.

For the origin of these results see article PMC5609913, “Structure based design, synthesis and activity studies of small hybrid molecules as HDAC and G9a dual inhibitors” (Oncotarget, 2017).
